One test relates to MDA-MB-231. Also on record: method as in PMID 19509223. The settings on record: MDA-MB-231, in vitro; cited from earlier work.
The test system of a further test is LPA1. As to conditions: Ca++ mobilization, RH7777 cells; kind of constant not given; read-out: inhibition of LPA1; cited from earlier work.
The target in test [1] is T1, endogenous ATX/lysoPLD activity in whole blood (Mus musculus, UniProt Q9R1E6).
T1 construct: from tissue; host or cells: mouse plasma / whole blood
The experiment in a line: Inhibition of ATX activity in whole blood ex vivo (TOOS assay). The format is biochemical. As to conditions: 2 h 37°C, TOOS with 1 mM LPC. The procedure:
ATX/LysoPLD activity was assessed based on the amount of choline released from LPC with the use of TOOS (N-ethyl-N-(2-hydoroxy-3-sulfopropyl)-3-methylaniline) reagent. In this assay ATX-mediated LPC-liberated choline is oxidised by choline oxidase to betaine and hydrogen peroxide (H2O2). The latter in the presence of horseradish peroxidase reacts with TOOS and 4-aminoantipyrene (4-AAP) to form a pink quinoneimine dye measured at 555 nm. […]
The liberated choline was detected by adding 100 μl of a color mix containing 4-AAP and TOOS (0.3 mM), horseradish peroxidase (5.3 UnitmL^−1) and choline oxidase (2 UnitmL^−1). Absorbance was measured at 555 nm and data were analyzed using the statistical software package Prism 4.0 (Graphpad Software Inc, La Jolla, CA, USA). For each sample and control the absorbance was plotted against time and the slope (da/min) for the linear (steady-state) portion of each reaction profile was calculated. Absorbance units were converted to nmol of choline/min/ml by comparison with a choline standard curve or by use of the extinction coefficient for the quinoneimine dye according to the following equation: [drawing 1] […]
Venous blood from wild type mouse was collected in EDTA tubes. […] IC50 values using ATX activity and LPA levels were determined graphically as described above.

As for `CCCCCCCCCCCCCCCC(=O)OC[C@@H](O)CC(Br)P(=O)(O)O` (stereo partly drawn) [BrP-LPA, 1-bromo-3(S)-hydroxy-4-(palmitoyloxy)butyl-phosphonate], the “breast cancer cell migration” value in the test with MDA-MB-231 is on record as “reduce breast cancer cell (MDA-MB-231) migration in vitro”. Besides, the IC50 in the test on LPA1 is 1500 nM; in test [1], 600 nM.

Values taken from paper PMC3726599, “A Metabolically-Stabilized Phosphonate Analog of Lysophosphatidic Acid Attenuates Collagen-Induced Arthritis” (PLoS ONE, 2013).
